Measured values published in patent US12521356B2, “Compositions and methods for treating pain, inflammation, infection, malaria, and sepsis” (Duke University, priority 2018, dated 2026).
pEC50: −log10 of the molar value.

How the values were obtained:
[1] = test system: peritoneal macrophages (pMΦ); test: Phagocytosis assay with fluorescence-labeled zymosan particles in peritoneal macrophages; format: cell-based, mouse; conditions: for MΦ phagocytosis: pMΦ
Protocol: Peritoneal macrophage culture. Peritoneal macrophages were collected by peritoneal lavage with 10 ml warm PBS containing of 1 mM EDTA. Cells were incubated in DMEM supplemented with 10% FBS at 37° C. for 2 h in petri dish and washed with PBS to eliminate non-adherent cells. The adherent cells were used as peritoneal macrophages. Peritoneal macrophages were used after 3 days of culture.
Phagocytosis assay. The phagocytosis assay was modified from a previously described protocol (Sommer C, and Kress M. NeurosciLett. 2004, 361, 184-187). pHrodo® Red Zymosan Bioparticles (diameter, 3 μm, Thermo scientific, Catalog: P35364) were rinsed and reconstituted in RPMI medium. Particles were centrifuged (1 min at 100 g) onto adherent peritoneal macrophages at a ratio of 10:1 to synchronize binding and internalization. After 30 min incubation at 37° C., non-adherent beads were removed with cold PBS and cells were fixed with 2% formalin. Four optic fields were photographed with epifluorescence microscopy. Quantification of zymosan particles ingested by MΦ was conducted on at least 200 macrophages/condition/well, and triplicates were included for statistical analysis.
We investigated whether iCa^2+ increases would trigger phagocytosis of pathogens such as zymosan by macrophages. Zymosan is a well-studied pathogen and activates TLR2 to trigger inflammation and inflammatory pain in rodents after intraplantar injection. We tested phagocytosis in pMΦ using fluorescence-labeled zymosan particles.

GPR37 = target: T1, GPR37 (Homo sapiens, UniProt O15354); test: Ca2+ imaging (Fura-2AM) in HEK293 cells transfected with human GPR37 cDNA; format: cell-based; conditions: GPR37-expressing HEK293 cells; for intracellular Ca2+ (iCa2+) increase: 3 min
T1 construct: host or cells: HEK293 flip-in cells
T1 sequence (O15354 27-613): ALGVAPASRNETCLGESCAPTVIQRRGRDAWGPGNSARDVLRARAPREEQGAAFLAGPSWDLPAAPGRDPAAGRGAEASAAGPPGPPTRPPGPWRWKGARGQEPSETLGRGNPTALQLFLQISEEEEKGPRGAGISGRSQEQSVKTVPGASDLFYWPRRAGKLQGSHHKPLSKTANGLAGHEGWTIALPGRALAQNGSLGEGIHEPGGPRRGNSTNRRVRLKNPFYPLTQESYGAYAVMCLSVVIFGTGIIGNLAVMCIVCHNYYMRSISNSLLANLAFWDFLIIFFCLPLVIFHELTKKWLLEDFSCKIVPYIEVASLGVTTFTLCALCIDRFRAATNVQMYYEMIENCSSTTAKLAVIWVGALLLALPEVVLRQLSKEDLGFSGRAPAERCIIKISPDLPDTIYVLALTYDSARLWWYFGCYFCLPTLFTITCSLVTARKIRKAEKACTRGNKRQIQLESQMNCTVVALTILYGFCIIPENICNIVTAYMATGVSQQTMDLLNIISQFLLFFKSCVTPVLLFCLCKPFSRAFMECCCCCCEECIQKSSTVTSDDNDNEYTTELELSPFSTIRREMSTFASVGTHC
Protocol: HEK cell culture and transfection. HEK293 flip-in cell line was purchased from Duke Cell Culture Facility. Cells were cultured in high glucose (4.5 g/L) Dulbecco's Modified Eagle's Medium containing 10% (v/v) fetal bovine serum (Gibco). Transfection (2 μg cDNA) was performed with Lonza electroporation (Lonza) at 70% confluency and the transfected cells were cultured in the same growth medium for 48 h before use. The hGPR37-V5 pLenti304 plasmids were obtained from DNASU (Tempe, AZ), and hGPR32, hChemR23 and hALX pcDNA3 plasmids were provided by Dr. Serhan from Harvard Medical School, Boston.
Calcium imaging. HEK 293 cells, with or without transfection of Gpr37, GPR32, ChemR23 or ALX1 cDNA, were loaded with 5 μM Fura-2AM (Invitrogen) for 1 hour and then were resuspended in normal external buffer (140 NaCl, 5 KCl, 2 CaCl2, 2 MgCl2, 10 HEPES, in mM, titrated to pH 7.4 with NaOH) or external Ca^2+-free buffer (140 NaCl, 2 MgCl2, 5 EGTA, 10 HEPES, in mM, titrated to pH 7.4 with NaOH). Peritoneal macrophages, collected from WT and Gpr37 KO mice, were loaded with 5 μM […] (Invitrogen) for 1 hour and then were resuspended in normal external buffer. Images of the HEK 293 cells and macrophages with the excitation wavelength of 340 nm and 380 nm were captured with a cooled Digital CMOS camera (ORCA-Flash 4.0, Hamamatsu Photonics K.K, Japan). The ratio of fluorescence intensity of the two wavelengths in each experiment was analyzed using MetaFluor (Molecular Devices). The Shutter speed and wavelength was controlled by Lambda DG-4 system (Sutter instrument Co., Novato, CA). Values from each of the experiments were normalized to the baseline ratio of 340/380 nm.
In order to investigate how GPR37 regulates intracellular signaling, we conducted Ca^2+ imaging in HEK293 cells that overexpress GPR37. […] Thus, we hypothesized TX14 and SPM may activate the same receptors and elicit similar intracellular responses. We transfected HEK293 cells with human GPR37 cDNA, loaded these cells with Ca^2+ dye Fura-2AM, and stimulated them with TX14 and various SPMs, using ionomycin (2 μM) as a positive control for Ca^2+ influx (FIG. 2A, FIG. 2B, FIG. 2C).

| Compound | NPD1-evoked increases in phagocytic activity ([1]; Gpr37-deficient MΦ) | percentage of pMΦ showing the phagocytosis of zymosan particles ([1]; wild-type pMΦ) | phagocytic activity (zymosan particles in pMΦ) ([1]; wild-type pMΦ, 30 nM for 30 min) | intracellular Ca2+ (iCa2+) increase (GPR37; 30 nM) | pEC50 (GPR37; dose response, read-out: EC50 of iCa2+ increase) | MΦ phagocytosis [1] | intracellular Ca2+ (iCa2+) increase (GPR37; 100 nM) |
| --- | --- | --- | --- | --- | --- | --- | --- |
| CC/C=C\C[C@H](O)\C=C/C=C/C=C/[C@H](O)C/C=C\C/C=C\CCC(=O)O [NPD1, neuroprotectin D1] | abolished | increased | dose-dependent increase in phagocytic activity | elicited significant increases | 7.59 |  |  |
| CC/C=C\C[C@H](O)/C=C/C=C\C=C\C=C\[C@@H](O)[C@@H](O)C/C=C\CCC(=O)O [RvD1] |  |  |  |  |  | induced | failed to increase iCa^2+ |
| CC[C@@H](O)/C=C/C=C\C[C@@H](O)/C=C/C=C/C=C\[C@@H](O)CCCC(=O)O [RvE1] |  |  |  |  |  | induced | failed to increase iCa^2+ |
